# Data published in PubChem BioAssay (NCI).
#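 Assay format: 96-well plates, 48-hour exposure. TGI: total growth inhibition.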
# What was measured:
# Experiment in all cases: NCI anticancer screen, dose series, 48 h
# RXF 393 renal = tested on: RXF 393 renal
# M19-MEL melanoma = tested on: M19-MEL melanoma
# SF-539 CNS = tested on: SF-539 CNS
# U251 CNS = tested on: U251 CNS
# CCRF-CEM leukemia = tested on: CCRF-CEM leukemia
# SNB-19 CNS = tested on: SNB-19 CNS
# NCI-H522 lung = tested on: NCI-H522 lung
# TK-10 renal = tested on: TK-10 renal
# SNB-78 CNS = tested on: SNB-78 CNS
# OVCAR-3 ovarian = tested on: OVCAR-3 ovarian
# ACHN renal = tested on: ACHN renal
# DLD-1 colon = tested on: DLD-1 colon
# OVCAR-5 ovarian = tested on: OVCAR-5 ovarian
# EKVX NSCLC = tested on: EKVX NSCLC
# LXFL 529 NSCLC = tested on: LXFL 529 NSCLC
# LOX IMVI melanoma = tested on: LOX IMVI melanoma
# HOP-18 NSCLC = tested on: HOP-18 NSCLC
# COLO 205 colon = tested on: COLO 205 colon
# HL-60(TB) leukemia = tested on: HL-60(TB) leukemia
# SN12C renal = tested on: SN12C renal
# KM20L2 colon = tested on: KM20L2 colon
# A549 NSCLC = tested on: A549 NSCLC
# SK-MEL-2 melanoma = tested on: SK-MEL-2 melanoma
# NCI-H460 lung = tested on: NCI-H460 lung
# CAKI-1 renal = tested on: CAKI-1 renal
# HCC-2998 colon = tested on: HCC-2998 colon
# OVCAR-4 ovarian = tested on: OVCAR-4 ovarian
# A498 renal = tested on: A498 renal
# SF-268 CNS = tested on: SF-268 CNS
# SF-295 CNS = tested on: SF-295 CNS
# DMS 114 small cell lung = tested on: DMS 114 small cell lung
# MOLT-4 leukemia = tested on: MOLT-4 leukemia
# M14 melanoma = tested on: M14 melanoma
# SNB-75 CNS = tested on: SNB-75 CNS
# DMS 273 small cell lung = tested on: DMS 273 small cell lung
# UO-31 renal = tested on: UO-31 renal
# KM12 colon = tested on: KM12 colon
# HOP-62 NSCLC = tested on: HOP-62 NSCLC
# MALME-3M melanoma = tested on: MALME-3M melanoma
# HOP-92 NSCLC = tested on: HOP-92 NSCLC
# NCI-H23 lung = tested on: NCI-H23 lung
# XF 498 CNS = tested on: XF 498 CNS
# K-562 leukemia = tested on: K-562 leukemia
# 786-0 renal = tested on: 786-0 renal
# UACC-257 melanoma = tested on: UACC-257 melanoma
# SR leukemia = tested on: SR leukemia
# HCT-116 colon = tested on: HCT-116 colon
# UACC-62 melanoma = tested on: UACC-62 melanoma
# IGROV1 ovarian = tested on: IGROV1 ovarian
# SW-620 colon = tested on: SW-620 colon
# NCI-H226 lung = tested on: NCI-H226 lung
# HT29 colon = tested on: HT29 colon
# SK-MEL-28 melanoma = tested on: SK-MEL-28 melanoma
# HCT-15 colon = tested on: HCT-15 colon
# OVCAR-8 ovarian = tested on: OVCAR-8 ovarian
# SK-MEL-5 melanoma = tested on: SK-MEL-5 melanoma
# SK-OV-3 ovarian = tested on: SK-OV-3 ovarian
# PC-3 prostate = tested on: PC-3 prostate
# RPMI-8226 leukemia = tested on: RPMI-8226 leukemia
# DU-145 prostate = tested on: DU-145 prostate
smiles,measurement,setting,value
CC1=CC(=O)NCCN1C,TGI,RXF 393 renal,> 100 µM
same,TGI,M19-MEL melanoma,> 100 µM
same,TGI,SF-539 CNS,> 100 µM
same,TGI,U251 CNS,> 100 µM
same,TGI,CCRF-CEM leukemia,> 100 µM
same,TGI,SNB-19 CNS,> 100 µM
same,TGI,NCI-H522 lung,> 100 µM
same,TGI,TK-10 renal,> 100 µM
same,TGI,SNB-78 CNS,> 100 µM
same,TGI,OVCAR-3 ovarian,> 100 µM
same,TGI,ACHN renal,> 100 µM
same,TGI,DLD-1 colon,> 100 µM
same,TGI,OVCAR-5 ovarian,> 100 µM
same,TGI,EKVX NSCLC,> 100 µM
same,TGI,LXFL 529 NSCLC,> 100 µM
same,TGI,LOX IMVI melanoma,> 100 µM
same,TGI,HOP-18 NSCLC,> 100 µM
same,TGI,COLO 205 colon,> 100 µM
same,TGI,HL-60(TB) leukemia,> 100 µM
same,TGI,SN12C renal,> 100 µM
same,TGI,KM20L2 colon,> 100 µM
same,TGI,A549 NSCLC,> 100 µM
same,TGI,SK-MEL-2 melanoma,> 100 µM
same,TGI,NCI-H460 lung,> 100 µM
same,TGI,CAKI-1 renal,> 100 µM
same,TGI,HCC-2998 colon,> 100 µM
same,TGI,OVCAR-4 ovarian,> 100 µM
same,TGI,A498 renal,> 100 µM
same,TGI,SF-268 CNS,> 100 µM
same,TGI,SF-295 CNS,> 100 µM
same,TGI,DMS 114 small cell lung,> 100 µM
same,TGI,MOLT-4 leukemia,> 100 µM
same,TGI,M14 melanoma,> 100 µM
same,TGI,SNB-75 CNS,> 100 µM
same,TGI,DMS 273 small cell lung,> 100 µM
same,TGI,UO-31 renal,> 100 µM
same,TGI,KM12 colon,> 100 µM
same,TGI,HOP-62 NSCLC,> 100 µM
same,TGI,MALME-3M melanoma,> 100 µM
same,TGI,HOP-92 NSCLC,> 100 µM
same,TGI,NCI-H23 lung,> 100 µM
same,TGI,XF 498 CNS,> 100 µM
same,TGI,K-562 leukemia,> 100 µM
same,TGI,786-0 renal,> 100 µM
same,TGI,UACC-257 melanoma,> 100 µM
same,TGI,SR leukemia,> 100 µM
same,TGI,HCT-116 colon,> 100 µM
same,TGI,UACC-62 melanoma,> 100 µM
same,TGI,IGROV1 ovarian,> 100 µM
same,TGI,SW-620 colon,> 100 µM
same,TGI,NCI-H226 lung,> 100 µM
same,TGI,HT29 colon,> 100 µM
same,TGI,SK-MEL-28 melanoma,> 100 µM
same,TGI,HCT-15 colon,> 100 µM
same,TGI,OVCAR-8 ovarian,> 100 µM
same,TGI,SK-MEL-5 melanoma,> 100 µM
same,TGI,SK-OV-3 ovarian,> 100 µM
COc1ccc(OC)c(/C=C/NC=O)c1,TGI,RXF 393 renal,> 100 µM
same,TGI,M19-MEL melanoma,> 100 µM
same,TGI,SF-539 CNS,> 100 µM
same,TGI,U251 CNS,> 100 µM
same,TGI,CCRF-CEM leukemia,> 100 µM
same,TGI,SNB-19 CNS,> 100 µM
same,TGI,PC-3 prostate,> 100 µM
same,TGI,NCI-H522 lung,> 100 µM
same,TGI,TK-10 renal,> 100 µM
same,TGI,RPMI-8226 leukemia,> 100 µM
same,TGI,SNB-78 CNS,> 100 µM
same,TGI,OVCAR-3 ovarian,> 100 µM
same,TGI,ACHN renal,> 100 µM
same,TGI,DLD-1 colon,> 100 µM
same,TGI,OVCAR-5 ovarian,> 100 µM
same,TGI,EKVX NSCLC,> 100 µM
same,TGI,LXFL 529 NSCLC,> 100 µM
same,TGI,LOX IMVI melanoma,> 100 µM
same,TGI,HOP-18 NSCLC,> 100 µM
same,TGI,COLO 205 colon,> 100 µM
same,TGI,HL-60(TB) leukemia,> 100 µM
same,TGI,SN12C renal,> 100 µM
same,TGI,KM20L2 colon,> 100 µM
same,TGI,A549 NSCLC,> 100 µM
same,TGI,SK-MEL-2 melanoma,> 100 µM
same,TGI,NCI-H460 lung,> 100 µM
same,TGI,CAKI-1 renal,> 100 µM
same,TGI,HCC-2998 colon,> 100 µM
same,TGI,OVCAR-4 ovarian,> 100 µM
same,TGI,A498 renal,> 100 µM
same,TGI,SF-268 CNS,> 100 µM
same,TGI,SF-295 CNS,> 100 µM
same,TGI,DMS 114 small cell lung,> 100 µM
same,TGI,MOLT-4 leukemia,> 100 µM
same,TGI,M14 melanoma,> 100 µM
same,TGI,SNB-75 CNS,> 100 µM
same,TGI,DMS 273 small cell lung,> 100 µM
same,TGI,UO-31 renal,> 100 µM
same,TGI,KM12 colon,> 100 µM
same,TGI,HOP-62 NSCLC,> 100 µM
same,TGI,MALME-3M melanoma,> 100 µM
same,TGI,HOP-92 NSCLC,> 100 µM
same,TGI,DU-145 prostate,> 100 µM
same,TGI,NCI-H23 lung,> 100 µM
same,TGI,XF 498 CNS,> 100 µM
same,TGI,K-562 leukemia,> 100 µM
same,TGI,786-0 renal,> 100 µM
same,TGI,UACC-257 melanoma,> 100 µM
same,TGI,SR leukemia,> 31.6 µM
same,TGI,HCT-116 colon,> 100 µM
same,TGI,UACC-62 melanoma,> 100 µM
same,TGI,IGROV1 ovarian,> 100 µM
same,TGI,SW-620 colon,> 100 µM
same,TGI,NCI-H226 lung,> 100 µM
same,TGI,HT29 colon,> 100 µM
same,TGI,SK-MEL-28 melanoma,> 100 µM
same,TGI,HCT-15 colon,> 100 µM
same,TGI,OVCAR-8 ovarian,> 100 µM
same,TGI,SK-MEL-5 melanoma,> 100 µM
same,TGI,SK-OV-3 ovarian,> 100 µM
